Laboratory results reported in publication PMC10518257 (Nature Cancer, 2023).
Where “and” joins values, the source holds several entries; their conditions need not be identical. Equal entries are not always repeated. Where two headings read alike, the source gives them in different places.

Experiment: Pharmacokinetic analysis of vepafestinib in rats (microdialysis PFC, CSF, plasma)
Type: in vivo, male Han Wistar rats

COCc1ccc(NC(=O)c2c(C#CCN3CCOCC3)n(C3(C)CC3)c3ncnc(N)c23)cc1 [Vepafestinib, 4-amino-N-[4-(methoxymethyl)phenyl]-7-(1-methylcyclopropyl)-6-[3-(morpholin-4-yl)prop-1-yn-1-yl]-7H-pyrrolo[2,3-d]pyrimidine-5-carboxamide]
concentration at 180 min (male, Han Wistar, rat, plasma (total), oral, 10 mg/kg, 180 min, individual rats, read-out: Concentration in Rats, Plasma (total)): 1780 nM
concentration at 240 min (male, Han Wistar, rat, plasma (total), oral, 10 mg/kg, 240 min, individual rats, read-out: Concentration in Rats, Plasma (total)): 872 nM
concentration at 480 min (male, Han Wistar, rat, plasma (total), oral, 10 mg/kg, 480 min, individual rats, read-out: Concentration in Rats, Plasma (total)): 102 nM
concentration at 120 min (male, Han Wistar, rat, plasma (total), oral, 50 mg/kg, rats, 50 mg/kg, 120 min, individual animals, read-out: Concentration in Plasma (total)): 9260 nM
concentration at 30 min (male, Han Wistar, rat, plasma (total), oral, 50 mg/kg, 30 min, individual rats, read-out: Concentration in Rats, Plasma (total)): 15100 nM
concentration at 60 min (male, Han Wistar, rat, plasma (total), oral, 50 mg/kg, 60 min, individual rats, read-out: Concentration in Rats, Plasma (total)): 10400 nM
concentration at 120 min (male, Han Wistar, rat, plasma (total), oral, 50 mg/kg, 120 min, individual rats, read-out: Concentration in Rats, Plasma (total)): 9260 nM
concentration at 30 min (male, Han Wistar, rat, plasma, oral, 50 mg/kg, rats, 50 mg/kg, 30 min, individual animals, read-out: Concentration in Plasma (total)): 15100 nM
concentration at 60 min (male, Han Wistar, rat, plasma, oral, 50 mg/kg, rats, 50 mg/kg, 60 min, individual animals, read-out: Concentration in Plasma (total)): 10400 nM
concentration at 30 min (male, Han Wistar, rat, prefrontal cortex microdialysate, oral, 3 mg/kg, 30 min, individual rats, read-out: Concentration in Rats, Prefrontal cortex): 7.04 nM
concentration at 90 min (male, Han Wistar, rat, prefrontal cortex microdialysate, oral, 3 mg/kg, 90 min, individual rats): 102 nM
concentration at 120 min (male, Han Wistar, rat, prefrontal cortex microdialysate, oral, 3 mg/kg, 120 min, individual rats, read-out: Concentration in Rats, Prefrontal cortex): 129 nM
concentration at 150 min (male, Han Wistar, rat, prefrontal cortex microdialysate, oral, 3 mg/kg, 150 min, individual rats): 101 nM
concentration at 30 min (male, Han Wistar, rat, prefrontal cortex microdialysate, oral, 10 mg/kg, 30 min, individual rats, read-out: Concentration in Rats, Prefrontal cortex): 17.5 nM
concentration at 60 min (male, Han Wistar, rat, prefrontal cortex microdialysate, oral, 10 mg/kg, 60 min, individual rats, read-out: Concentration in Rats, Prefrontal cortex): 362 nM
concentration at 90 min (male, Han Wistar, rat, prefrontal cortex microdialysate, oral, 10 mg/kg, 90 min, individual rats): 514 nM
concentration at 120 min (male, Han Wistar, rat, prefrontal cortex microdialysate, oral, 10 mg/kg, 120 min, individual rats, read-out: Concentration in Rats, Prefrontal cortex): 479 nM
concentration at 150 min (male, Han Wistar, rat, prefrontal cortex microdialysate, oral, 10 mg/kg, 150 min, individual rats): 270 nM
concentration at 180 min (male, Han Wistar, rat, prefrontal cortex microdialysate, oral, 10 mg/kg, 180 min, individual rats, read-out: Concentration in Rats, Prefrontal cortex): 259 nM
concentration at 120 min (male, Han Wistar, rat, prefrontal cortex microdialysate, oral, 50 mg/kg, rats, 50 mg/kg, 120 min, individual animals, read-out: Concentration in Prefrontal cortex): 972 nM
concentration at 1500 min (male, Han Wistar, rat, prefrontal cortex microdialysate, oral, 50 mg/kg, rats, 50 mg/kg, 1500 min, individual animals, read-out: Concentration in Prefrontal cortex): 71.6 nM
concentration at 120 min (male, Han Wistar, rat, prefrontal cortex microdialysate, oral, 50 mg/kg, 120 min, individual rats, read-out: Concentration in Rats, Prefrontal cortex): 972 nM
concentration at 1500 min (male, Han Wistar, rat, prefrontal cortex microdialysate, oral, 50 mg/kg, 1500 min, individual rats, read-out: Concentration in Rats, Prefrontal cortex): 71.6 nM
concentration at 480 min (rats, 50 mg/kg, 30 min, individual animals, 50 mg/kg, read-out: Concentration in Cerebrospinal fluid): 1290 nM and 1440 nM and 2760 nM and 1580 nM
concentration at 60 min (rats, 50 mg/kg, 30 min, individual animals, 50 mg/kg, read-out: Concentration in Plasma (total)): 15700 nM and 13100 nM and 11800 nM
concentration at 1500 min (rats, 50 mg/kg, 30 min, individual animals, 50 mg/kg, read-out: Concentration in Prefrontal cortex): 30.2 nM and 10.2 nM and 22.2 nM and 39.9 nM
concentration at 480 min (rats, 50 mg/kg, 60 min, individual animals, 50 mg/kg, read-out: Concentration in Cerebrospinal fluid): 648 nM and 1420 nM and 2370 nM and 1210 nM
concentration at 60 min (rats, 50 mg/kg, 60 min, individual animals, 50 mg/kg, read-out: Concentration in Plasma (total)): 11900 nM and 11400 nM and 11800 nM
concentration at 1500 min (rats, 50 mg/kg, 60 min, individual animals, 50 mg/kg, read-out: Concentration in Prefrontal cortex): 883 nM and 396 nM and 691 nM and 1135 nM
concentration at 1500 min (rats, 50 mg/kg, 90 min, individual animals, 50 mg/kg, read-out: Concentration in Prefrontal cortex): 1549 nM and 742 nM and 1277 nM and 1593 nM
concentration at 480 min (rats, 50 mg/kg, 120 min, individual animals, 50 mg/kg, read-out: Concentration in Cerebrospinal fluid): 1780 nM and 1160 nM and 2340 nM and 756 nM
concentration at 60 min (rats, 50 mg/kg, 120 min, individual animals, 50 mg/kg, read-out: Concentration in Plasma (total)): 16400 nM and 8330 nM and 13200 nM
concentration at 1500 min (rats, 50 mg/kg, 120 min, individual animals, 50 mg/kg, read-out: Concentration in Prefrontal cortex): 1089 nM and 1363 nM and 1680 nM
concentration at 1500 min (rats, 50 mg/kg, 150 min, individual animals, 50 mg/kg, read-out: Concentration in Prefrontal cortex): 804 nM and 1293 nM and 1118 nM and 1680 nM
concentration at 60 min (rats, 50 mg/kg, 180 min, individual animals, 50 mg/kg, read-out: Concentration in Plasma (total)): 6200 nM and 14400 nM and 6310 nM and 8540 nM
concentration at 1500 min (rats, 50 mg/kg, 180 min, individual animals, 50 mg/kg, read-out: Concentration in Prefrontal cortex): 761 nM and 1438 nM and 957 nM and 2162 nM
concentration at 1500 min (rats, 50 mg/kg, 210 min, individual animals, 50 mg/kg, read-out: Concentration in Prefrontal cortex): 555 nM and 1724 nM and 852 nM and 1666 nM
concentration at 480 min (rats, 50 mg/kg, 240 min, individual animals, 50 mg/kg, read-out: Concentration in Cerebrospinal fluid): 1730 nM and 963 nM and 1170 nM and 522 nM
concentration at 60 min (rats, 50 mg/kg, 240 min, individual animals, 50 mg/kg, read-out: Concentration in Plasma (total)): 3870 nM and 13700 nM and 7630 nM and 7250 nM
concentration at 1500 min (rats, 50 mg/kg, 240 min, individual animals, 50 mg/kg, read-out: Concentration in Prefrontal cortex): 463 nM and 1651 nM and 722 nM and 1680 nM
concentration at 1500 min (rats, 50 mg/kg, 270 min, individual animals, 50 mg/kg, read-out: Concentration in Prefrontal cortex): 359 nM and 1856 nM and 877 nM and 1281 nM
concentration at 60 min (rats, 50 mg/kg, 300 min, individual animals, 50 mg/kg, read-out: Concentration in Plasma (total)): 4840 nM and 9390 nM and 5350 nM and 4540 nM
concentration at 60 min (rats, 50 mg/kg, 360 min, individual animals, 50 mg/kg, read-out: Concentration in Plasma (total)): 5830 nM and 7730 nM and 5370 nM and 2620 nM
concentration at 480 min (rats, 50 mg/kg, 480 min, individual animals, 50 mg/kg, read-out: Concentration in Cerebrospinal fluid): 435 nM and 486 nM and 321 nM
concentration at 60 min (rats, 50 mg/kg, 480 min, individual animals, 50 mg/kg, read-out: Concentration in Plasma (total)): 134 nM and 4450 nM and 4860 nM and 4260 nM
concentration at 1500 min (rats, 50 mg/kg, 1500 min, individual animals, 50 mg/kg, read-out: Concentration in Prefrontal cortex): 123 nM
